Source: patent US20190353647A1, “NOVEL REAL-TIME MULTIPLEXED, MULTI-COLOR BIOLUMINESCENCE RESONANCE ENERGY TRANSFER ASSAY, APPARATUS, AND USES THEREOF” (Universite de Bordeaux, priority 2016, published 2019)

Target: T1, TRPV1 (Homo sapiens, UniProt Q8NER1)
T1 construct: expressed in transfected cells; host or cells: HEK293T
Test: Intermolecular BRET assay, TRPV1-Luc/YFP-CaM in HEK293T cells
Format: cell-based
Settings: TRPV1-Luc/YFP-CaM
Excerpt: In order to generate the BRET constructs, super Yellow Fluorescent Protein 2 and Renilla Luciferase II were used to improve the brightness of the assay. They were referred as YFP and Luc for short in the rest of the manuscript. The cDNA of Luc and YFP were first cloned together using a three-piece ligation in the BamHI/XhoI site of pcDNA3.1(+) (Invitrogen, Carlsbad, Calif., USA), yielding two expression vectors pcDNA3.1 YFP-Luc where YFP was cloned in-fusion at the N-terminal of Luc, and pcDNA3.1 Luc-YFP where Luc was cloned in-fusion at the N-terminal of YFP. Both YFP and Luc were amplified by PCR from the pcDNA3-YFP-EPAC-Luc vector. Luc was cloned either at the N-terminal of YFP as a HindIII-EcoRI fragment (primers used: “Luc_HindIII_ATGN-term sense” and “Luc_no Stop_EcoRI_N-term antisense”) or at the COOH-terminal of YFP as an EcoRI-XhoI fragment (primer used: “Luc_EcoRI_ATG_C-term sense” and “Luc_XhoI_Stop_C-term antisense”). In parallel, YFP was cloned either at the N-terminal of Luc as a HindIII-EcoRI fragment (primers used: “YFP_HindIII_ATG_N-term sense” and “YFP_no Stop_EcoRI_N-term antisense”) or at the COOH-terminal of Luc as a EcoRI-XhoI fragment (primer used: “YFP_EcoRI_ATG_C-term sense” and “YFP_XhoI_Stop_C-term antisense”). The sequence joining Luc and YFP sequence encoded […] (SEQ ID NO: 18) as a linker, and contained an AgeI restriction site. The YFP-hTRPV1-Luc expression vector was obtained by subcloning the human TRPV1 cDNA from the pDONR201-hTRPV1 vector (Harvard Medical School PlasmID Repository, clone HsCD00081472) as an EcoRI PCR fragment in the EcoRI site of the vector pcDNA3.1 YFP-Luc (primer used: “hTRPV1_EcoRI_Fus_Sense” and “hTRPV1_EcoRI_Fus_antisense”). The hTRPV1-Luc expression vector was obtained by subcloning the cDNA of hTRPV1 as a HindIII-EcoRI fragment in place of the YFP in the HindIII-EcoRI site of the pcDNA3.1 YFP-Luc vector (primer used: “hTRPV1_HindIII_ATG_Sense” and “hTRPV1_EcoRI_Fus_antisense”). The Luc-hTRPV3 expression vector was obtained by subcloning the cDNA of hTRPV3 (Harvard Medical School PlasmID Repository, clone HsCD00341603) as a AgeI-XhoI fragment in place of the YFP in the AgeI-XhoI sites of the pcDNA3.1 Luc-YFP vector (primer used: “hTRPV3_AgeI_ATG_Sense” and “hTRPV3_Stop_XhoI_antisense”). The hTRPV4-Luc expression vector was obtained by subcloning the cDNA of hTRPV4 as a BamHI-AgeI fragment in place of the YFP in the BamHI-AgeI site of the pcDNA3.1 YFP-Luc vector (primer used: “hTRPV4_BamHI_ATG_Sense” and hTRPV4_AgeI_Fus_antisense”). In each case, the sequence joining the cDNA of interest and either Luc or YFP sequence encoded […] (SEQ ID NO: 18) as a linker.
The cDNA of mAmetrine (Plasmid #54660) and LssmOrange (Plasmid #37130) were obtained from AddGene plasmid repository. The cDNA of aquamarine, mAmetrine and LssmOrange were all subcloned as a HindIII-EcoRI fragment in place of the YFP in the HindIII-EcoRI site of the pcDNA3.1 YFP-Luc vector (primer used: “YFP_HindIII_ATG_N-term sense” and “YFP_no Stop_EcoRI_N-term antisense”) to yield pcDNA3.1 FP-Luc expression vectors (“FP” being any fluorescent protein between aquamarine, mAmetrine and LssmOrange). […] A similar strategy was used to obtain the FP-CaM expression vector using the pcDNA3.1 FP-Luc expression vector instead of the pcDNA3.1 YFP-Luc.
HEK293T cells were maintained in Dulbecco's modified Eagle's medium-high Glucose (DMEM) (D6429, Sigma) supplemented with 10% fetal bovine serum, 100 units mL-1 penicillin and streptomycin. Twenty-four hours before transfection, cells were seeded at a density of 500,000 cells in 6-well dishes. Transient transfections were performed using polyethylenimine (PEI, linear, Mr 25,000; catalogue number 23966 Polysciences, Inc., Warrington, Pa., USA) with a PEI:DNA ratio of 4:1. Usually, 0.1-0.25 μg of the donor constructions and 1.75-1.9 μg of the acceptors constructions were transfected for the BRET measurement.

T1 sequence (Q8NER1 whole entry): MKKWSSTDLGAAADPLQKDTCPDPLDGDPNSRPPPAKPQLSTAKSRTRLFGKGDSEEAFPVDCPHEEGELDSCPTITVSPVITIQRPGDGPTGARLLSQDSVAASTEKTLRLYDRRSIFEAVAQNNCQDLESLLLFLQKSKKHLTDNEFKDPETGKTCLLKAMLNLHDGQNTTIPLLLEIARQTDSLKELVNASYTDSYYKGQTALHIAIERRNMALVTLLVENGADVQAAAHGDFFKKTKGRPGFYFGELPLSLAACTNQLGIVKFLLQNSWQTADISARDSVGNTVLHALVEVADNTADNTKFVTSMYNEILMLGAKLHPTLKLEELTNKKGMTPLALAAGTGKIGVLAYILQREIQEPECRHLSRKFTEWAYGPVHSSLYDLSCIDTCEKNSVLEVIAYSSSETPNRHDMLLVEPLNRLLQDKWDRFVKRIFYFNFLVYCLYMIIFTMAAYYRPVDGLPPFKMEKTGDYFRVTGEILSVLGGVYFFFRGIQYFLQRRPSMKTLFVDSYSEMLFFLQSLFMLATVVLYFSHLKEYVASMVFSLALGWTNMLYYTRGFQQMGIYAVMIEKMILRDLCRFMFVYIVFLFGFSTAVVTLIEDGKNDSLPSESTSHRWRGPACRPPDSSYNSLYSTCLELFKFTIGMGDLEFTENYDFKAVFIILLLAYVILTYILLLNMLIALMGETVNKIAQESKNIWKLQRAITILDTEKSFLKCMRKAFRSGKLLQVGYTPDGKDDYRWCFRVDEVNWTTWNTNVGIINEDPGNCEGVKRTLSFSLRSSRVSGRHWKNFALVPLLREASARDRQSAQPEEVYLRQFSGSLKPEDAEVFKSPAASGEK

Compound | Change of basal BRET signal | Effect on CAPS-induced BRET increase (intermolecular test)
CC(=O)OCOC(=O)CN(CC(=O)OCOC(C)=O)c1ccccc1OCCOc1ccccc1N(CC(=O)OCOC(C)=O)CC(=O)OCOC(C)=O [BAPTA-AM] | severely diminished | abolished
C[C@H](CCC(=O)O)C[C@H](C)C[C@H](C)C(=O)/C=C(\O)[C@H](C)C[C@H](C)C/C=C/[C@@H](C)[C@@H](O)[C@@H](C)[C@@H](O)C[C@@H]1CC[C@@](C)([C@H]2CC[C@@](C)([C@@H](C)O)O2)O1 [ionomycin] | no effect | 
